Assay results from patent US12338256B2, “Aza-tetracyclic oxazepine compounds and uses thereof” (Genentech, Inc., priority 2022, dated 2025).
Like-named read-outs stand apart in the source and are kept apart here. Values belong to the molecule of their own block, whether it stands above or below them.

How the values were obtained:
Format in all cases: cell-based
[1] = test system: H1975 (KRAS wild type human lung adenocarcinoma cell line); assay: KRAS 3D-Cell Proliferation Assay, H1975 (Example 503); conditions: Homo sapiens, NCI-H1975, 168 h, H1975 3D culture, 7 days, CellTiter-Glo 3D; read-out: Prolif H1975 3D ATP IC50
Summary of the method: (§1)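 Cells grown in 3D in ultra-low attachment plates (RPMI-1640 with 10% FBS and 2 mM L-glutamine) received compound dilution series after overnight attachment, at 0.3% DMSO final, for 7 days at 37° C. ATP luminescence (CellTiter-Glo 3D) normalized to DMSO and 1 μM staurosporine; IC50 from 4-parameter Hill fit.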

[2] = test system: AsPC-1 (homozygous mutant KRAS G12D human pancreatic cell line); assay: KRAS 3D-Cell Proliferation Assay, AsPC-1 (Example 503); conditions: AsPC-1 3D culture, 7 days, CellTiter-Glo 3D, read-out: Prolif AsPC-1 3D ATP IC50
Experimental: Example 503: KRAS 3D-Cell Proliferation Assays. Cellular potencies of compounds are assessed by evaluating inhibition of proliferation in 3D cultures of homozygous mutant KRAS G12D human pancreatic cell lines (AsPC-1 and HPAC) as compared to a KRAS wild type human lung adenocarcinoma cell line (PC-9 and/or H1975). Cells are seeded into 384-well black round-bottom, ultra-low attachment assay plates in 50 uL cell growth medium (RPMI-1640 with 10% fetal bovine serum and 2 mM L-glutamine). After overnight incubation at 37° C. and 5% CO2, compounds solubilized in DMSO are added as dilution series to the wells in a total volume of 150 nL (0.3% DMSO final). The cells are incubated for 7 days at 37° C. and 5% CO2. Cell proliferation is quantitated by addition of 40 uL/well of CellTiter-GloÒ 3D (Promega), and the well contents are mixed 20× at high speed using liquid handling automation workstation (Bravo with 384-well head) and centrifuged at 1500 rpm for 2 minutes to eliminate bubbles. This reagent in combination with mechanical disruption releases the cellular ATP to promote activity in a luciferase-based enzyme/substrate chemiluminescent detection system. After a 30-minute incubation under ambient conditions with shaking and an additional 10 minutes without shaking, the luminescence is read on a plate reader (e.g., EnVision [PerkinElmer]). The results are normalized to percent inhibition based on the following control samples: DMSO (0% inhibition) and 1 μM staurosporine (100% inhibition). The normalized luminescence results are plotted against compound concentration, and the data are fit to a 4-parameter Hill equation to determine the IC50 values.

[3] = test system: HPAC (homozygous mutant KRAS G12D human pancreatic cell line); assay: KRAS 3D-Cell Proliferation Assay, HPAC (Example 503); conditions: Homo sapiens, HPAC, 168 h, HPAC 3D culture, 7 days, CellTiter-Glo 3D; read-out: Prolif HPAC 3D ATP IC50
Summary of the method: as §1

Compound: Cc1c(F)c(N)cc(-c2nc3c4c(nc(OC[C@@H]5[C@@H]6CCN5CCO6)nc4c2F)N2C[C@H]4CC[C@H](N4)[C@H]2[C@H](C)O3)c1C(F)(F)F [Compound 136, 5-((5S,5aS,6S,9R)-12-(((5S,8R)-4-Oxa-1-azabicyclo[3.2.1]octan-8-yl)methoxy)-1-fluoro-5-methyl-5a,6,7,8,9,10-hexahydro-5H-4-oxa-3,10a,11,13,14-pentaaza-6,9-methanonaphtho[1,8-ab]heptalen-2-yl)-2-fluoro-3-methyl-4-(trifluoromethyl)aniline]
- IC50 [1]: 12300 nM
- IC50 ([2]; Homo sapiens, ASPC1, 168 h): 200 nM
- IC50 [3]: 67.5 nM

Compound: Cc1c(F)c(N)cc(-c2nc3c4c(nc(OC[C@@]56CCCN5C[C@H](F)C6)nc4c2F)N2C[C@H]4CC[C@H](N4)[C@H]2[C@H](C)O3)c1CC(F)F [Compound 75, 4-(2,2-Difluoroethyl)-2-fluoro-5-((5S,5aS,6S,9R)-1-fluoro-12-(((2R,7aS)-2-fluorotetrahydro-1H-pyrrolizin-7a(5H)-yl)methoxy)-5-methyl-5a,6,7,8,9,10-hexahydro-5H-4-oxa-3,10a,11,13,14-pentaaza-6,9-methanonaphtho[1,8-ab]heptalen-2-yl)-3-methylaniline]
- IC50 [1]: 797 nM
- IC50 ([2]; Homo sapiens, ASPC1, 168 h): 5.2 nM
- IC50 [3]: 2.77 nM

Compound: Cc1nc(N)cc(-c2nc3c4c(nc(OC[C@@]56CCCN5C[C@H](F)C6)nc4c2F)N2C[C@H]4CC[C@H](N4)[C@H]2[C@H](C)O3)c1C(F)(F)F [Compound 215, 4-((5S,5aS,6S,9R)-1-Fluoro-12-(((2R,7aS)-2-fluorotetrahydro-1H-pyrrolizin-7°(5H)-yl)methoxy)-5-methyl-5°,6,7,8,9,10-hexahydro-5H-4-oxa-3,10°,11,13,14-pentaaza-6,9-methanonaphtho[1,8-ab]heptalen-2-yl)-6-methyl-5-(trifluoromethyl)pyridin-2-amine]
- IC50 [1]: 831 nM
- IC50 ([2]; Homo sapiens, ASPC1, 168 h): 7.8 nM
- IC50 [3]: 2.5 nM

Compound: C#Cc1cccc2cc(O)cc(-c3nc4c5c(nc(OC[C@@]67CCCN6C[C@H](F)C7)nc5c3F)N3C[C@H]5CC[C@H](N5)[C@H]3[C@H](C(F)(F)F)O4)c12 [Compound 251]
- IC50 [1]: 234 nM
- IC50 ([2]; Homo sapiens, ASPC1, 168 h): 1.9 nM
- IC50 [3]: 2.3 nM

Compound: Cc1c(F)c(N)cc(-c2nc3c4c(nc(OCC5COCC6CCCN65)nc4c2F)N2CC4CCC(N4)C2C(C)O3)c1C(F)(F)F (single isomer, unassigned) [121 (isomer 2)]
- IC50 ([2]; Homo sapiens, ASPC1, 168 h): 41 nM

Compound: Cc1c(F)c(N)cc(-c2nc3c4c(nc(OCC5(CN6C[C@H]7C[C@@H]6CO7)CC5)nc4c2F)N2C[C@H]4CC[C@H](N4)[C@H]2[C@H](C)O3)c1C(F)(F)F [Compound 170, 5-((5S,5aS,6S,9R)-12-((1-(((1R,4R)-2-Oxa-5-azabicyclo[2.2.1]heptan-5-yl)methyl)cyclopropyl)methoxy)-1-fluoro-5-methyl-5a,6,7,8,9,10-hexahydro-5H-4-oxa-3,10a,11,13,14-pentaaza-6,9-methanonaphtho[1,8-ab]heptalene-2-yl)-2-fluoro-3-methyl-4-(trifluoromethyl)aniline]
- IC50 [1]: 506 nM
- IC50 ([2]; Homo sapiens, ASPC1, 168 h): 0.8 nM
- IC50 [3]: 0.92 nM

Compound: Cc1nc(N)c(F)c(-c2nc3c4c(nc(OC[C@@]56CCCN5CC5(CC5(F)F)C6)nc4c2F)N2C[C@H]4CC[C@H](N4)[C@H]2[C@H](C(F)(F)F)O3)c1C(F)(F)F (stereo partly drawn) [Compound 257, 4-((5R,5aS,6S,9R)-12-(((7a′S)-2,2-Difluorodihydro-1′H,3′H-spiro[cyclopropane-1,2′-pyrrolizin]-7a′(5′H)-yl)methoxy)-1-fluoro-5-(trifluoromethyl)-5a,6,7,8,9,10-hexahydro-5H-4-oxa-3,10a,11,13,14-pentaaza[6,9]methanonaphtho[1,8-ab]heptalen-2-yl)-3-fluoro-6-methyl-5-(trifluoromethyl)pyridin-2-amine]
- IC50 [1]: 5020 nM
- IC50 ([2]; Homo sapiens, ASPC1, 168 h): 8 nM
- IC50 [3]: 8.37 nM

Compound: Cc1c(F)c(N)c(F)c(-c2nc3c4c(nc(OC[C@@]56CCCN5C[C@H](F)C6)nc4c2F)N2C[C@H]4CC[C@H](N4)[C@H]2[C@H](C)O3)c1C(F)(F)F [Compound 91, 2,6-Difluoro-3-((5S,5aS,6S,9R)-1-fluoro-12-(((2R,7aS)-2-fluorotetrahydro-1H-pyrrolizin-7a(5H)-yl)methoxy)-5-methyl-5a,6,7,8,9,10-hexahydro-5H-4-oxa-3,10a,11,13,14-pentaaza-6,9-methanonaphtho[1,8-ab]heptalen-2-yl)-5-methyl-4-(trifluoromethyl)aniline]
- IC50 [1]: 953 nM
- IC50 ([2]; Homo sapiens, ASPC1, 168 h): 1.3 nM
- IC50 [3]: 1.25 nM

Compound: Cc1nc(N)cc(-c2nc3c4c(nc(OCC56CCN5CC(F)(F)C6)nc4c2F)N2C[C@H]4CC[C@H](N4)[C@H]2[C@H](C)O3)c1C(F)(F)F (stereo partly drawn) [Compound 214, 4-((5S,5aS,6S,9R)-12-((3,3-Difluoro-1-azabicyclo[3.2.0]heptan-5-yl)methoxy)-1-fluoro-5-methyl-5°,6,7,8,9,10-hexahydro-5H-4-oxa-3,10°,11,13,14-pentaaza-6,9-methanonaphtho[1,8-ab]heptalen-2-yl)-6-methyl-5-(trifluoromethyl)pyridin-2-amine]
- IC50 [1]: 7030 nM
- IC50 ([2]; Homo sapiens, ASPC1, 168 h): 25.4 nM
- IC50 [3]: 8.04 nM

- IC50 [2]: 6.6 nM
Compound: Cc1c(F)c(N)cc(-c2nc3c4c(nc(OC[C@]5(CN6CC7(COC7)C6)CC5(F)F)nc4c2F)N2C[C@H]4CC[C@H](N4)[C@H]2[C@H](C(F)(F)F)O3)c1C(F)(F)F [255 a]

Compound: Cc1cc(N)c(F)c(-c2nc3c4c(nc(OCC56CCN5CC(F)(F)C6)nc4c2F)N2C[C@H]4CC[C@H](N4)[C@H]2[C@H](C)O3)c1 (stereo in doubt) [Compound 23, 3-((5S,5aS,6S,9R)-12-((3,3-difluoro-1-azabicyclo[3.2.0]heptan-5-yl)methoxy)-1-fluoro-5-methyl-5a,6,7,8,9,10-hexahydro-5H-4-oxa-3,10a,11,13,14-pentaaza-6,9-methanonaphtho[1,8-ab]heptan-2-yl)-2-fluoro-5-methylaniline]
- IC50 [2]: ≥ 20000 nM
- IC50 ([2]; Homo sapiens, ASPC1, 168 h): 14000 nM

Compound: Cc1c(F)c(N)cc(-c2nc3c4c(nc(OCC56CCCN5CC(F)C6F)nc4c2F)N2C[C@H]4CC[C@H](N4)[C@H]2[C@H](C)O3)c1C(F)(F)F (single isomer, unassigned) [143 (isomer 2)]
- IC50 ([2]; Homo sapiens, ASPC1, 168 h): 4.1 nM

Compound: C[C@@H]1Oc2nc(-c3c(Cl)c(N)c(F)c(F)c3C(F)(F)F)c(F)c3nc(OC[C@@]45CCCN4C[C@H](F)C5)nc(c23)N2C[C@H]3CC[C@H](N3)[C@@H]12 (atropisomer, axis not shown; (aS)) [Compound 106, 2-Chloro-5,6-difluoro-3-((5S,5aS,6S,9R)-1-fluoro-12-(((2R,7aS)-2-fluorotetrahydro-1H-pyrrolizin-7a(5H)-yl)methoxy)-5-methyl-5a,6,7,8,9,10-hexahydro-5H-4-oxa-3,10a,11,13,14-pentaaza-6,9-methanonaphtho[1,8-ab]heptalen-2-yl)-4-(trifluoromethyl)aniline]
- IC50 [1]: 770 nM
- IC50 ([2]; Homo sapiens, ASPC1, 168 h): 5.4 nM

Compound: Cc1c(F)c(N)cc(-c2nc3c4c(nc(OCC56CCCC5N(C)CCC6)nc4c2F)N2C[C@H]4CC[C@H](N4)[C@H]2[C@H](C)O3)c1C(F)(F)F (single isomer, unassigned) [126 (isomer 1)]
- IC50 ([2]; Homo sapiens, ASPC1, 168 h): 0.6 nM

Compound: Cc1cc(N)c(F)c(-c2nc3c4c(ncnc4c2Cl)N2C[C@H]4CC[C@H](N4)[C@H]2[C@H](C)O3)c1C(F)(F)F (atropisomer, axis not shown) [Compound 95, 3-((5S,5aS,6S,9R)-1-chloro-5-methyl-5a,6,7,8,9,10-hexahydro-5H-4-oxa-3,10a,11,13,14-pentaaza-6,9-methanonaphtho[1,8-ab]heptalen-2-yl)-2-fluoro-5-methyl-4-(trifluoromethyl)aniline]
- IC50 ([2]; Homo sapiens, ASPC1, 168 h): 200 nM

Compound: Cc1c(F)c(N)cc(-c2nc3c4c(nc(OCC56CCN5CC(F)(F)C6)nc4c2F)N2C[C@H]4CC[C@H](N4)[C@H]2[C@H](C(F)(F)F)O3)c1C(F)(F)F (single isomer, unassigned) [263 (diast. 1)]
- IC50 ([2]; Homo sapiens, ASPC1, 168 h): 7.1 nM

Compound: Cc1nc(N)cc(-c2nc3c4c(nc(OCC5(CN6CC(C)(F)C6)CC5)nc4c2F)N2C[C@H]4CC[C@H](N4)[C@H]2[C@H](C)O3)c1C(F)(F)F [Compound 289, 4-((5S,5aS,6S,9R)-1-fluoro-12-((1-((3-fluoro-3-methylazetidin-1-yl)methyl)cyclopropyl)methoxy)-5-methyl-5a,6,7,8,9,10-hexahydro-5H-4-oxa-3,10a,11,13,14-pentaaza-6,9-methanonaphtho[1,8-ab]heptalene-2-yl)-6-methyl-5-(trifluoromethyl)pyridin-2-amine]
- IC50 [1]: 573 nM
- IC50 [3]: 3.15 nM
